Measurements from PubChem BioAssay AID434987 (Southern Research Specialized Biocontainment Screening …, 2010).
Activity calls are given as the source filed them. The rule behind the calls is not given here.

System: M. tuberculosis H37Rv growth inhibition with meropenem
Experiment: dose response, H37Rv, with and without meropenem (AID 434987);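 note: growth over 7 days at 37 °C before Alamar Blue read on day 9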
[1] = M. tuberculosis H37Rv growth inhibition, measured here: IC50 without meropenem
[2] = M. tuberculosis H37Rv growth inhibition, measured here: IC90 without meropenem
[3] = measured here: IC90 with meropenem

| Compound | IC50 | IC50 [1] [µM] | IC90 [2] [µM] | IC90 [3] [µM] |
| --- | --- | --- | --- | --- |
| CSc1ccccc1C(=O)Nc1cccc([N+](=O)[O-])c1C | > 100 µM (inactive) | > 100 | > 100 | > 100 |
| Cn1ccnc1C(=O)Cc1ccc([N+](=O)[O-])cc1 | 7.78 µM | 44.1 | 48.9 | 22.6 |
| O=C(N/N=C/c1c(Cl)cccc1Cl)c1cccc(F)c1 | > 100 µM (inactive) | > 100 | > 100 | > 100 |
| Cc1cc(C2C(=O)c3ccccc3C2=O)c(C)c(C)c1C | 3.79 µM | 34 | > 100 | 16.4 |
| CCOC(=O)C1CCN(C(=O)c2sc3nc(C)nc(N4CCC(C)CC4)c3c2C)CC1 | 69.5 µM (inactive) | 76.5 | > 100 | > 100 |
| O=C1S/C(=C\C=C\c2ccco2)C(=O)N1c1ccccc1 | 14.7 µM | 43.5 | > 100 | 77.6 |
| CC1(c2ccc([N+](=O)[O-])cc2)NC(=O)N(CC(=O)c2ccc3c(c2)OCO3)C1=O (configuration not stated) | > 100 µM (inactive) | > 100 | > 100 | > 100 |
| O=C(Cn1ncc2c3ccccc3n(Cc3ccccc3F)c2c1=O)NCCCN1CCCC1=O | > 100 µM (inactive) | > 100 | > 100 | > 100 |
| CCOC(=O)C1CCN(c2ccc(C(N)=O)cc2[N+](=O)[O-])CC1 | 16.3 µM | 55.2 | > 100 | > 100 |
| CCOC(=O)c1nn(-c2ccc(Cl)cc2)cc1O | > 100 µM (inactive) | > 100 | > 100 | > 100 |
| CCC(CC)NC(=O)CON=C1c2ccccc2-c2ccccc21 | > 100 µM (inactive) | > 100 | > 100 | > 100 |
| CSc1ccccc1NC(=O)c1c(Br)cnn1C | 28.4 µM | 82.7 | > 100 | > 100 |
| O=S(=O)(Nc1ccccc1)c1ccc2c(c1)CCO2 | > 100 µM (inactive) | > 100 | > 100 | > 100 |
| CC1CN(C2CCCCC2)c2nc3c(c(=O)[nH]c(=O)n3C)n2C1 (configuration not stated) | > 100 µM (inactive) | > 100 | > 100 | > 100 |
| N#Cc1ccc(NCC(=O)Nc2ccc(S(=O)(=O)N3CCCCC3)cc2)cc1 | > 100 µM (inactive) | > 100 | > 100 | > 100 |
| O=c1cc(C(F)(F)F)c2sc(N3CCCCC3)nc2[nH]1 | 45.4 µM (inactive) | > 100 | > 100 | 49.3 |
| COC(=O)c1c(NC(=O)c2ccc(C)cc2)csc1C | 48.9 µM (inactive) | 84 | > 100 | > 100 |
| CCNCC(O)c1cccc(O)c1 (configuration not stated) | > 100 µM (inactive) | > 100 | > 100 | > 100 |
| CC(C)(C)c1cc(Cc2ccccc2)[nH]n1 | 28.2 µM (inactive) | 43.1 | > 100 | > 100 |
| CSc1nc(-c2ccc(Cl)cc2)nn1S(=O)(=O)c1ccccc1 | 9.85 µM | > 100 | > 100 | > 100 |
| Cc1cccc(OCc2nc(-c3ccccn3)n[nH]2)c1 | 3.43 µM | 22.5 | 25.6 | 7.37 |
| NC(N)=NS(=O)(=O)c1ccc(N)cc1 | > 100 µM (inactive) | > 100 | > 100 | > 100 |

| Compound | IC50 | IC50 [1] [µM] | IC90 [2] [µM] | IC90 [3] [µM] |
| --- | --- | --- | --- | --- |
| COc1ccc(C(=O)Nc2nc3ccccc3s2)c(OC)c1 | > 100 µM (inactive) | > 100 | > 100 | > 100 |
| CC(C)Cn1c2c(c(O)c(C(=O)Nc3ccc(F)cc3)c1=O)CCCC2 | 82.2 µM (inactive) | > 100 | > 100 | > 100 |
| COCCNC(C(=O)Nc1ccc(C)cc1[N+](=O)[O-])c1ccccc1 (configuration not stated) | 17.2 µM | 49.1 | > 100 | > 100 |
| COc1ccccc1NC(=O)c1cnc(Nc2ccccc2OC)c2ccccc12 | 37.2 µM | > 100 | > 100 | > 100 |
| Cc1ccc(-n2ncc(-c3nnc(SCC(=O)NC4CCCC4)o3)c2N)cc1C | > 100 µM (inactive) | > 100 | > 100 | > 100 |
| Cc1ccsc1C(=O)NNC(=O)c1csc(N2CCOCC2)n1 | 62.7 µM (inactive) | > 100 | > 100 | > 100 |
| O=C1/C(=C/c2ccncc2)CCc2ccccc21 | 16.8 µM (inactive) | 24.3 | 36.4 | 29.1 |
| C(=N\n1cnnc1)/c1ccc(-c2ccccc2)cc1 | > 100 µM (inactive) | > 100 | > 100 | > 100 |
| COc1ccc(OC)c(NC(=O)CSC2=C(C#N)C(c3ccco3)C3=C(CCCC3=O)N2)c1 (configuration not stated) | 70.4 µM (inactive) | 94.2 | > 100 | > 100 |
| CC(/C=N/NC(=O)c1cc(C(C)(C)C)[nH]n1)=C\c1ccccc1 | > 100 µM (inactive) | > 100 | > 100 | > 100 |
| CN(C)S(=O)(=O)c1ccc(NC(=O)c2cc3ccccc3o2)cc1 | > 100 µM (inactive) | > 100 | > 100 | > 100 |
| CCNC(=S)N/N=C1\C(=O)c2cccc3cccc1c23 | 5.46 µM | > 100 | > 100 | 7.61 |
| CCOC(=O)c1sc(NC(=O)Nc2ccc(Cl)cc2)cc1C | > 100 µM (inactive) | > 100 | > 100 | > 100 |
| COc1ccc2c(c1)c(C(C)=O)c(C)n2-c1ccccc1 | 0.336 µM | > 100 | > 100 | 6.92 |
| c1ccc(Nc2ncnc3c2oc2ccccc23)cc1 | 2 µM | > 100 | > 100 | > 100 |
| COc1ccc(Cl)cc1NC(=O)C/C(C)=N/NC(=O)CC#N | 7.99 µM | > 100 | > 100 | > 100 |
| C/C(=N\NC(=O)c1cc2c(s1)CCC(C)C2)c1cccnc1 (configuration not stated) | > 100 µM (inactive) | > 100 | > 100 | > 100 |
| CCC(CC)c1nnc(NC(=O)c2cc(-c3ccccc3)nc3ccccc23)s1 | > 100 µM (inactive) | > 100 | > 100 | > 100 |
| Cc1cc(C)n(-c2nc(-c3ccc(Cl)c(Cl)c3)cs2)n1 | 14.5 µM | > 100 | > 100 | > 100 |
| CC(C)C(=O)Nc1ccc(NC(=S)NC(=O)c2ccc([N+](=O)[O-])cc2)cc1 | > 100 µM (inactive) | > 100 | > 100 | > 100 |
| Cn1nc(-c2ccc(OCC(=O)NCC3CCCO3)cc2)c2ccccc2c1=O (configuration not stated) | > 100 µM (inactive) | > 100 | > 100 | > 100 |
